PMC9655717, “New Molecules of Diterpene Origin with Inhibitory Properties toward α-Glucosidase” (International Journal of Molecular Sciences, 2022)

How the values were obtained:
[1] = target: T1, yeast α-GLy (α-glucosidase, Sigma G0660) (Saccharomyces cerevisiae, UniProt P53341); assay: biochemical; format: biochemical; conditions: yeast α-glucosidase, 37°C, pH 6.8; read-out: IC50 ± SE, α-glucosidase inhibition
T1 construct: purchased Sigma G0660

[2] = target: T2, α-glucosidase (Sigma G0660) (Saccharomyces cerevisiae, UniProt P53341); assay: Kinetic study of α-glucosidase inhibition (Michaelis-Menten, pNPG); format: biochemical, yeast
T2 construct: purchased Sigma G0660
T2 sequence (P53341 whole entry): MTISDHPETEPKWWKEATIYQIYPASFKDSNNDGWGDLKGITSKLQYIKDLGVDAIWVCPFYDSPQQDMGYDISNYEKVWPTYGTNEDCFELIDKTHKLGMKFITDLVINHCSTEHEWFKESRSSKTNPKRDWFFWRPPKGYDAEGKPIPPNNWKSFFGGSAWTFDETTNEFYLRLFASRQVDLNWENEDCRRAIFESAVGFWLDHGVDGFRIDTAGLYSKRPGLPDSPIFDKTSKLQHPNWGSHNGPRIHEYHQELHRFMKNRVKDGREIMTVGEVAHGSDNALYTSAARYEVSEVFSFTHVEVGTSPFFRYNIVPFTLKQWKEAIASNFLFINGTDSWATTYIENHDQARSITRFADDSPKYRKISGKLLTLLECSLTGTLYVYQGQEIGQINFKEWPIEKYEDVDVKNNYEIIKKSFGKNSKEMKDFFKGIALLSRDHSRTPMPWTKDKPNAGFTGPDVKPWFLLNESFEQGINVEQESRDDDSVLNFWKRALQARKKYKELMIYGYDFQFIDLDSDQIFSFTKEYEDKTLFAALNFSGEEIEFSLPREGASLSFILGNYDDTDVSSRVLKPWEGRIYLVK
Description: The method’s principle based on the hydrolyzed reaction of 4-nitrophenyl-α-D-glucopiranoside with α-glucosidase enzyme into yellow 4- […]
The kinetic assay was performed according to the method using a series of […]
μL of 100 mM phosphate buffer (pH 6.8), 25 μL of α-glucosidase (0.4 U/mL, Sigma G0660) were pre-incubated for 10 min at 37 °C. DMSO was added to the respective control wells to a 0.64% final concentration. The reaction was initiated with the addition of 25 μL of p-nitrophenyl-[…] (pNPG, Sigma N1377) solution in a range of final concentrations. The amount of released p-nitrophenol from pNPG was immediately measured at 410 nm with Infinite M200 PRO (Tecan, Austria). Conversion of optical density to nM p-nitrophenol was performed with a standard curve. Reaction rates were determined from the linear parts of kinetic curves and fitted to the Michaelis-Menten equation. The assay was performed in triplicate wells and two independent […]
Ligands were prepared with MarvinSketch 18.8.0 (ChemAxon Ltd.). Ligands were hydrogenized and conformations with minimal potential energy were obtained using the MMFF94 force field. The homology model of S. cerevisiae α-glucosidase was obtained with SWISS-MODEL as described previously. Protein and ligand structures followed standard preparation procedure using AutoDocTools 1.5.6. We used AutoDock Vina 1.1.211 to perform all docking runs. The grid box with 70×80×80 Å dimensions was centered on the enzyme molecule to include the entire 3D space around the protein. The top-score binding poses were used in subsequent analysis. […]
(Dassault Systemes Biovia Corp.).
DPPH (0.1 mM) was diluted in methanol. 200 μL of this solution was added to 1.3 μL of various concentrations of compounds in DMSO (256.0, 64.0, 16.0, and 4.0 μg/mL). The mixture was performed by a 96-well plate at 25 °C in 30 min. […]

T1 sequence (P53341 whole entry): as above

In the case of C#CCOC(=O)C1(C)CCCC2(C)C1CCC13C=C(C(C)C)C(CC12)c1c(O)cc2c(C(=O)OC)c(C)[nH]c2c13 (centres unmarked) [Compound 45, Methyl 7-propynyl 1-hydroxy-13-isopropyl-7,10a,2′-trimethyl-5,6,6b,7,8,9,10,10a,10b,11,12,13-dodecahydro-12,4b-ethenophenanthro [2,1-g]indole-7,1′-dicarboxylate], the IC50 [1] is reported as 150 ± 8 nM, the Vmax ([2]; Compound 45 at 25 μM) is reported as 2.277 nM/min and the Vmax ([2]; Compound 45 at 50 μM) is reported as 2.221 nM/min. The Vmax ([2]; Compound 45 at 100 μM) was 2.249 nM/min and the “mechanism of α-glucosidase inhibition” value ([2]; Michaelis-Menten nonlinear regression) was “competitive inhibitor”.
